“And” between values parts separate entries of the source, which are not always exact repeats. Identical values can stand only once.

Series [1] has as its system dIoN-CCI rat model of trigeminal neuropathic pain. Kind of series: Trigeminal neuralgia model (dIoN-CCI), Von Frey mechanical threshold. Particulars: dIoN-CCI rats.
Excerpt: A common rat model of trigeminal neuralgia is a chronic compression injury model (CCI) caused by ligation of the infraorbital nerve (IoN). In the present study, an improved rat model of trigeminal neuropathic pain was used, in which CCI is induced by ligation of distal segment of IoN (dIoN). Wild type male Sprague-Dawley rats with body weight 250 to 260 grams underwent dIoN-CCI surgery experiments. The mechanical threshold of pain in rats without surgery experiments will exceed 6 grams. If the dIoN-CCI surgery is successful, it will reduce the pain threshold to less than 2 grams.
The mice were divided into the following 11 groups with 4 to 5 mice in each group. The formulation used for transdermal treatment is cream. […] The compound administration of each group starts on the third day after successful dIoN-CCI surgery. […] The method for detecting rat facial hypersensitivity is performed using Von Frey filaments. An analysis of variance (ANOVA) and Dunnett post hoc comparison test are used to compare the significance of the differences between different groups of data. The difference is significant with P<0.05.
Another series concerns db−/db− mice. The series is described as follows: Diabetic peripheral neuropathy model, Von Frey threshold, sciatic nerve ROS and MDA. It counts as in vivo, mouse. The conditions noted are these: in food 10 mg/kg body weight/day (pregabalin 30 mg/kg body weight/day); for level of MDA in the sciatic nerve after 10 week treatment / level of mitochondrial ROS in the sciatic nerve after 10 week treatment: compared with healthy control group; for mechanical pain threshold after 10 week treatment: compared with normal control group. Here is the method:
Male 5-6 week-old male db^−/db^− mice were used in the experiment, and their normoglycemic heterozygous littermates were used as controls. db^−/db^− is a commonly used type 2 diabetes animal model. The compounds was dissolved in DMSO and mixed into food pellets. The animals were given ad libitum access to the pellets, beginning from 8 to 9 weeks of age for 10 weeks. […] The method for detecting mice hindlimb hypersensitivity is performed using Von Frey filaments. […] The difference is significant with P<0.05. The increase of mitochondrial reactive oxygen species (ROS) in the sciatic nerve of mice, which in turn leads to the increase of intracellular malondialdehyde (MDA), is the etiology of this type of neuropathic pain. The efficacy of compound to treat the root cause of the disease was evaluated by measurement of the levels of MDA and mitochondrial ROS from the sciatic nerves.

A further series deals with T1, PPARγ (Homo sapiens, UniProt P37231).
T1 construct: expressed in transfected cells; host or cells: HEK 293 T cells
T1 sequence (P37231 1-505): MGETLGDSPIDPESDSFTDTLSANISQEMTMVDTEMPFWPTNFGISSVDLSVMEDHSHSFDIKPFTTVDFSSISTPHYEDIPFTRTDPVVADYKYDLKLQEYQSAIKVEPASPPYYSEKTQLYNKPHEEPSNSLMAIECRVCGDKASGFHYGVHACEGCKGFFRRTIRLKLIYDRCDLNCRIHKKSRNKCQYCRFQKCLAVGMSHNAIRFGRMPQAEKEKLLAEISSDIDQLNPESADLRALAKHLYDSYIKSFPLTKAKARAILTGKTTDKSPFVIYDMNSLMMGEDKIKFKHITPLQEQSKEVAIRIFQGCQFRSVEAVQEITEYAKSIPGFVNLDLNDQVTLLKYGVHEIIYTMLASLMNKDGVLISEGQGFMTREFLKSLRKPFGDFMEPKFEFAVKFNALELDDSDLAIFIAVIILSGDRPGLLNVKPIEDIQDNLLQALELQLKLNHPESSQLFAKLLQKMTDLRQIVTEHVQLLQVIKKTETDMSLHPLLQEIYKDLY
Kind of series: In vitro transcriptional activity of PPARγ gene (PPRE-luciferase reporter, HEK 293 T cells). It counts as cell-based. The conditions noted are these: HEK 293 T cells transfected with PPARγ expression and PPRE-luc plasmids, 21 hours; read-out: EC50 of PPARγ gene activation. An excerpt:
In this experiment, the PPARγ gene was used as target gene to detect the in vitro transcription activity of the compounds. The compounds of interest were detected was first dissolved with dimethyl sulfoxide (DMSO). […] First two plasmids were constructed: PPARγ protein expression plasmid and luciferase reporter plasmid. They are both from the lentiviral plasmid pLV-CMVIE-ZsGreen-Puro, whose DNA sequence contains the cytomegalovirus immediate early (CMVie) promoter, ZsGreen and Puro dual reporter. The PPARγ expression plasmid pLV-CMVIE-PPAR[…]-ZsGreen-Puro was constructed by cloning full-length coding sequences of the pertinent receptors into pHBLV-CMVIE-ZsGreen-Puro vector. To construct the luciferase (luc) reporter plasmid pLV-PPRE-luc-ZsGreen-Puro, the CMVie promoter in plasmid pHBLV-CMVIE-ZsGreenPuro was first replaced by a peroxisome proliferator responsive element (PPRE) containing fragments comprised the nucleotide sequence 50-[…], repeated four times in tandem, to generate a new plasmid, at a multiple cloning site of which the luc gene was then inserted. […] The compounds used for screening are representatives for compounds listed in Table 2, and Tables 3 of the present invention. […] Cells were distributed in 10-cm tissue culture plates at a density of 5.5 million cells per plate, and then transfected with the luciferase reporter plasmid (6 nanogram/plate) and the PPARγ expression plasmid (18 nanogram/plate). Cells were cultured for 6 hours. […] Then the cells were distributed in 96-well plates at a density of 20,000 cells per well. After incubation for 6 h, compounds or control with different concentration were placed into each well, resulting in the finical concentration of […] with each concentration in triplicate. Twenty-one hours later, promoter activation was detected by the addition of SteadyLite (PerkinElmer, Waltham, MA) and GloMax 96 Microplate Luminometer (Promega, Madison, WI). The amount of Luminometer emitted from each well is positively correlated with the expression of PPARγ gene. A three-parameter Sigmoid function curve was used to fit the obtained data. The abscissa represents the logarithmic value of the concentration, and the ordinate represents the percentage of PPARγ gene activation relative to those of the control. […] In Statistical analysis, the coefficient of variation is used to measure the robustness and repeatability of the experiment. […] The difference is significant with P<0.05. EC50 is a parameter of its activity.
A general note: Reporter assays use an easily measured gene product as a stand-in for the process of interest.

For another series, the system named is klotho gene. The series is described as follows: In vivo brain transcriptional activity of klotho gene (RT-PCR of brain mRNA). Set-up: species or system mouse. The conditions noted are these: 10 mg/kg body weight/day tail vein; for mRNA level of klotho gene in the brain of the mouse relative to vehicle control group: after 10 days of continuous injection; for fold induction at 10 mg/kg: Mus musculus, iv, 720 h, after 30 days of continuous injection, read-out: mRNA level of klotho gene in the brain of the mouse relative to vehicle control group. As for the experimental part:
To verify this hypothesis, adult male Kunming mice were used in the experiments. […] The injection volume is 8 ml/kg body weight. Dimethyl sulfoxide (DMSO) was used as a vehicle control of the compounds. […] The RNA was then reverse-transcribed to the cDNA, and quantified by SYBR Green fluorescence quantitative PCR kit (HaiGene) and a quantitative PCR system (Bio-Rad Min-Opticon Type 2) were used for real-time fluorescent quantitative polymerase chain reaction (RT-PCR). The mouse gene primers were design as follows: • KLOTHO-forward 5′-[…]-3′; • LOTHO-reverse 5′-[…]-3′; • GAPDH-forward 5′-[…]-3′; • GAPDH-reverse 5′-[…]-3′.
Data analysis was performed using the 2^−ΔΔct method. Semi-quantitative values of gene expression were then normalized by the control mean.

The subject of another series is klotho gene promoter. The series is described as follows: In vitro transcriptional activity of klotho gene (KL-Luc-3 luciferase cell line). It counts as cell-based. Particulars: 16 h, KL-Luc-3 cells, 16 hours incubation. An excerpt: The activities of these carbonyl-containing cyclic compounds are indicated by the increased expression of klotho gene. […] The present invention retains the DNA fragment of the klotho gene promoter, but replaces the DNA sequence of the coding region of the klotho gene with those of luciferase, so that the degree of activation of the klotho gene promoter and the expression of the klotho gene will be sensitively determined by detecting the luciferase luminescence signal.
Klotho is an important downstream gene of PPARγ pathway. The following experiments tested the properties of the compounds in Table 2 and 3 to activate the klotho gene in vitro. First, a stable cell line, KL-Luc, was constructed. The klotho gene carried by the cell line retained the DNA sequence of klotho gene promoter, but the coding sequence of the klotho gene was replaced with luciferase. KL-Luc fragment includes a promoter sequence of the klotho gene (a DNA region of 18,000 base pairs in length upstream of the transcription start site of the gene) and a luciferase-encoding sequence. To construct the KL-Luc sequence containing lentiviral vector, the KL-Luc fragment was cloned into the pDONR vector using BP recombinase, so that the target fragment had attL recombination sites on both sides. Then the KL-Luc fragment was transferred from the pDONR vector to a lentiviral vector (without exogenous promoter) pLenti6/BLOCK-IT-DEST. The constructed lentiviral vector of the target fragment was then transfected into HEK293T cells, and then the KL-Luc gene lentiviral expression vector and the […] were co-transfected into HEK293T cells to perform lentiviral packaging. The virus was harvested, and virus titer was calculated. And the lentivirus was used to infect target cells. The stable strains were screened by adding drugs. Finally, monoclonal cell lines were selected from polyclonal cells by cell cloning. The effective luciferase expression of each monoclonal cell line was determined by quantitative polymerase chain reaction (qPCR). The inventors chose a third monoclonal cell line (KL-Luc-3) to continue the compound screening. The compounds of interest were the compounds in Table 2 and 3. At the same time, rosiglitazone and pioglitazone were used as a control. KL-Luc-3 cells were divided into 96-well plates at 5000 cells in 80 microL per well, cultured in a 37° C. carbon dioxide incubator with serum-free Duchenne's Modified Eagle's Medium (DMEM) for 6 hours, and then the compounds were added to a final concentration of 0, 0.1, 0.3, 1, 3, 10, 30 micromole/L, with each concentration in triplicate. After 16 hours of incubation, the SteadyLite (PerkinElmer, Waltham, MA) and the GloMax Microplate Luminometer (Promega, USA) were used for quantitation of luciferase activity. The amount of luminescence emitted from each well is positively related to the transcriptional activity of the klotho promoter. A three-parameter Sigmoid function curve was used to fit the obtained data. The abscissa represents the logarithmic value of the concentration, and the ordinate represents the percentage of the activity relative to those of the control. […] In Statistical analysis, the coefficient of variation is used to measure the robustness and repeatability of the experiment. […] The difference is significant with P<0.05. EC50 is a parameter of its activity. The lower the EC50 value, the higher the activity of corresponding compound.

A further series relates to APP/PS1 transgenic mice. Kind of series: Alzheimer's disease model, eight-arm radial water maze and brain gene expression. The format is in vivo, mouse. Particulars: 30 days in food, 10 mg/kg body weight/day (donepezil 3 mg/kg body weight/day), 5 on the first day. An excerpt:
A common indicator used in academia in memory and dementia experiments is the number of errors in the water maze (reference memory). More errors mean poorer memory. On the last 3 days of dosing, eight-arm radial water maze was used by experimenters who were blind to drug treatment. As a classic experimental instrument, to detect slight deficits in learning and memory, the eight-arm water maze is more sensitive than not only Morris maze, but also Six-arm radial water maze. For details, see reference 8: Alamed J et al. Two-day radial-arm water maze learning and memory task; robust resolution of amyloid-related memory deficits in transgenic mice [J]. […] This experiment uses an eight-arm water maze built in accordance with the above literature. The eight-arm water maze is placed in a basin with an interior diameter of 102 cm. Each arm measures 30 cm long, 14.5 cm wide, and 40 cm high. Escape platform is located at the end of one of the arms. In the reference memory version of the task described here, the goal arm is held constant for all trials, with a different start arm on successive trials. On day one, mice received 12 trials, with trials alternating between visible and hidden platform. On day 2 and 3, mice received 12 additional trials but the platform was kept hidden throughout the trials. Entry into an incorrect arm was scored as a spatial reference error. Errors were averaged into three trial blocks, with four blocks per day, e.g., the first block (the 1st to 3rd trial), the second block (the 4th to 6th trial), and so on. […]. The line charts were made with the number of blocks as the abscissa and the average of the number of errors as the ordinate. At the end of the experiments, the cerebral cortex and hippocampus of the mice were removed, RNA was extracted, and the expression of many genes was analyzed by semi-quantitative RT-PCR. […] The difference is significant with P<0.05.

Turning to `NCC1(CC(=O)O)CCCCC1` [gabapentin, reference compound], the “side effect at the time of administration” value in series [1] is “drowsiness”. In series [1] (oral gabapentin group (1 mg/kg body weight)), the “duration of the anti-allodynic effect” value came to 1 h.
Take `CC(C)C[C@H](CN)CC(=O)O` [pregabalin, reference compound]: in the series on db−/db− mice, the “level of MDA in the sciatic nerve after 10 week treatment” value is on record as “significantly higher”, the “level of mitochondrial ROS in the sciatic nerve after 10 week treatment” value was “significantly higher” and the “mechanical pain threshold after 10 week treatment” value is recorded as “no difference”.
What is called EC50 is the concentration at which the effect is half-maximal. As for `CCc1ccc(CCCCc2ccc3c(c2)NC(=O)CC3)cc1` [ELB00702, 7-(4-(4-ethylphenyl)butyl)-3,4-dihydroquinolin-2(1H)-one], on PPARγ, the EC50 was < 6.4 µM and 3.1 µM. In the series on klotho gene, the “mRNA level of klotho gene in the brain of the mouse relative to vehicle control group” value was “more than twice” and the fold induction at 10 mg/kg was more than 5.
Consider `CCc1ccc(CC/C=C/c2ccc3c(c2)NC(=O)CO3)cc1` [ELB00993, (E)-6-(4-(4-ethylphenyl)but-1-en-1-yl)-2H-benzo[b][1,4]oxazin-3(4H)-one], for which the EC50 at PPARγ is less than 6.4 µM. Moreover, in the series on klotho gene, the “mRNA level of klotho gene in the brain of the mouse relative to vehicle control group” value is “more than twice” and the fold induction at 10 mg/kg is more than 5.
Take `CCc1ccc(CCCCc2ccc3c(c2)OCCC(=O)N3)cc1` [ELB00827, 8-(4-(4-ethylphenyl)butyl)-2,3-dihydrobenzo[b][1,4]oxazepin-4(5H)-one]: the half-maximal effective concentration (EC50) at PPARγ was less than 6.4 µM. Moreover, the EC50 in the series with klotho gene promoter was less than 9.7 µM. Further, in the series on klotho gene, the “mRNA level of klotho gene in the brain of the mouse relative to vehicle control group” value is listed as “more than twice” and the fold induction at 10 mg/kg is more than 5.
As to `CCc1ccc(CC/C=C/c2ccc3c(c2)C(=O)CCO3)cc1` [ELB001080, (E)-6-(4-(4-ethylphenyl)but-1-en-1-yl)chroman-4-one], the EC50 at PPARγ is less than 6.4 µM. Besides, the “number of errors in water maze on the third day” value with APP/PS1 transgenic mice is given as “comparable to that of ELB00824”. In the series on db−/db− mice, the “level of MDA in the sciatic nerve after 10 week treatment” value is reported as “reduced”, the “level of mitochondrial ROS in the sciatic nerve after 10 week treatment” value is listed as “reduced” and the “mechanical pain threshold after 10 week treatment” value is on record as “significantly improved”.
`CCc1ccc(C/C=C/c2cccc(CC3NCC(=O)N3)c2)cc1` (centres unmarked) [ELB001090, (E)-2-(3-(3-(4-ethylphenyl)prop-1-en-1-yl)benzyl)imidazolidin-4-one]: the EC50 at PPARγ is < 6.4 µM and 3.9 µM; with klotho gene promoter, less than 9.7 µM. Moreover, the “mRNA level of klotho gene in the brain of the mouse relative to vehicle control group” value in the series with klotho gene is listed as “more than twice”.

Values taken from patent US12545653B2, “Compound as PPAR agonist and application thereof” (USA Elixiria Biotech Inc., priority 2019, dated 2026).
